In general, EC50 refers to the concentration at which the effect is half-maximal. The low end stands for a more potent agent, the high end for a less potent agent.

Where a name gives a salt, the structure may show the parent alone.

The source of these data is ChEMBL document CHEMBL3865791, “Discovery and development of natural product oridonin-inspired anticancer agents” (Eur J Med Chem, 2016).

Assay type in all cases: functional, cell-based
Assay [1] can be described thus: Antiproliferative activity against human K562 cells after 72 hrs by MTT assay. The settings on record: K562, 72 h.
Assay [2] in a line: Antiproliferative activity against human […] cells after 72 hrs by MTT assay. For orientation: Tetrazolium assays rely on reduction of a dye to a coloured formazan, in cell work by metabolically active cells.
Assay [3] can be described thus: Antiproliferative activity against human MGC803 cells after 72 hrs by MTT assay. The settings on record: MGC-803, 72 h.
Assay [4] in a line: Antiproliferative activity against human CaEs17 cells after 72 hrs by MTT assay. The note with it: CaEs17, 72 h.
Assay [5] is described as follows: Antiproliferative activity against human ER-positive MCF7 cells measured after 48 hrs by MTT assay. The note with it: MCF7, 48 h.
A short description of assay [6]: Antiproliferative activity against human MDA-MB-231 cells measured after 48 hrs by MTT assay. The note with it: MDA-MB-231, 48 h.
Assay [7] in a line: Antiproliferative activity against human ER-triple negative MDA-MB-468 cells measured after 48 hrs by MTT assay. The settings on record: MDA-MB-468, 48 h.
Assay [8] in a line: Antiproliferative activity against human MCF7/ADR cells measured after 48 hrs by MTT assay. The note with it: NCI/ADR-RES.
Assay [9] can be described thus: Antiproliferative activity against human MCF7 cells.
The nature of assay [10]: Antiproliferative activity against human MDA-MB-231 cells.

Consider `C=C1C(=O)[C@@]23C(=O)O[C@H]4CCC(C)(C)[C@H]5[C@H](O)OC[C@@]45[C@@H]2CC[C@@H]1[C@H]3OC(C)=O`, for which the concentration for a half-maximal effect (EC50) in assay [1] worked out at 1.11 µM; in assay [2] it was 1.97 µM; in assay [3], 1.99 µM; in assay [4], 1.59 µM.

On to `C=C1C(=O)[C@@]23C(=O)O[C@H]4CCC(C)(C)[C@H]5[C@H](O)OC[C@@]45[C@@H]2CC[C@@H]1[C@H]3OC(=O)c1ccccc1`, for which the EC50 in [1] came out at 0.21 µM; in [2] it was 1.42 µM; in [3], 0.93 µM; in assay [4], 0.54 µM.

Take `C=C1C(=O)[C@@]23C(=O)O[C@H]4CCC(C)(C)[C@H]5[C@H](O)OC[C@@]45[C@@H]2CC[C@@H]1[C@H]3OC(=O)c1ccc(C)cc1`: the EC50 in [1] turned out to be 0.14 µM; in [2], 1.01 µM; in assay [3], 0.61 µM; in assay [4], 0.45 µM.

On to `C=C1C(=O)[C@@]23C(=O)O[C@H]4CCC(C)(C)[C@H]5[C@H](O)OC[C@@]45[C@@H]2CC[C@@H]1[C@H]3OC(=O)c1ccccc1Cl`, for which the EC50 in [1] turned out to be 0.22 µM; in assay [2], 0.85 µM; in assay [3], 0.8 µM; in assay [4] it was 0.6 µM.

As to `C=C1C(=O)[C@@]23C(=O)O[C@H]4CCC(C)(C)[C@H]5C(=O)OC[C@@]45[C@@H]2CC[C@@H]1[C@H]3OC(C)=O`, the EC50 in [1] came out at 0.35 µM; in assay [2], 1.37 µM; in [3] it was 1.27 µM; in assay [4], 0.69 µM.

Take `C=CCO[C@@H]1CCC2=C(O1)[C@@]13CO[C@@]4(OC(C)(C)O[C@@H]5[C@H]6CC[C@@H]1[C@]54C(=O)C6=C)[C@@H](O)[C@@H]3C(C)(C)C2`: the EC50 in assay [5] is 2.1 µM; in assay [6] it was 3.3 µM; in assay [7], 4.4 µM; in assay [8], 3.2 µM.

As to `C=C1C(=O)[C@@]23[C@@H]4OC(C)(C)O[C@@]25OC[C@]2(C6=C(CC[C@H](OCCCl)O6)CC(C)(C)[C@H]2[C@@H]5O)[C@@H]3CC[C@@H]14`, the EC50 in assay [5] came to 2.3 µM; in assay [6], 3.3 µM; in assay [7], 3 µM; in [8] it was 3.1 µM.

Regarding `C=C1C(=O)[C@@]23[C@@H]4OC(C)(C)O[C@@]25OC[C@]2(C6=C(CC[C@H](OCC(C)C)O6)CC(C)(C)[C@H]2[C@@H]5O)[C@@H]3CC[C@@H]14`, the EC50 in [5] was 2.2 µM; in assay [6], 1.8 µM; in [7], 2.6 µM; in [8], 4.4 µM.

As for `C=C1C(=O)[C@]23[C@H](O)[C@H]1CC[C@H]2[C@@]12CO[C@@]3(O)[C@@H](O)[C@@H]1C(C)(C)Cc1sc(NC(=N)N)nc12`, the results for the EC50 in assay [9] and in assay [10] were 3.4 µM and over 10 µM, respectively.

Turning to `C=C1C(=O)[C@@]23C(=O)O[C@H]4CCC(C)(C)[C@H]5C(=O)OC[C@@]45[C@@H]2CC[C@@H]1[C@H]3OC(=O)c1ccccc1`, the EC50 in assay [1] stood at 0.33 µM; in assay [2] it was 0.79 µM; in [3], 0.46 µM; in [4], 0.81 µM.

Consider `C=C1C(=O)[C@@]23[C@@H]4OC(C)(C)O[C@@]25OC[C@]2(C6=C(CC[C@H](OCCCC)O6)CC(C)(C)[C@H]2[C@@H]5O)[C@@H]3CC[C@@H]14`, for which the EC50 stood at 2.4 µM in assay [5], 2.2 µM in assay [6], 3 µM in [7] and 3.8 µM in [8].

Turning to `C=C1C(=O)[C@@]23C(=O)O[C@H]4CCC(C)(C)[C@H]5C(=O)OC[C@@]45[C@@H]2CC[C@@H]1[C@H]3OC(=O)c1ccc(Cl)cc1`, the EC50 in assay [1] was 0.14 µM; in assay [2] it was 0.89 µM; in assay [3], 0.34 µM; in [4], 0.34 µM.

As for `C=C1C(=O)[C@@]23[C@@H]4OC(C)(C)O[C@@]25OC[C@]2(C6=C(CC[C@@H](OCC)O6)CC(C)(C)[C@H]2[C@@H]5O)[C@@H]3CC[C@@H]14`, the EC50 in assay [5] amounted to 0.44 µM; in assay [6], 0.54 µM; in [7] it was 0.52 µM; in [8], 1.6 µM.

As to `C=C1C(=O)[C@@]23[C@@H]4OC(C)(C)O[C@@]25OC[C@]2(C6=C(CC[C@H](OCC)O6)CC(C)(C)[C@H]2[C@@H]5O)[C@@H]3CC[C@@H]14`, the EC50 in assay [5] was determined as 3.5 µM; in assay [6], 6.1 µM; in assay [7], 5.4 µM; in [8] it was 4.7 µM.

For the molecule `C=C1C(=O)[C@]23[C@H](OC(=O)c4ccccc4C(=O)OCCCOc4no[n+]([O-])c4S(=O)(=O)c4ccccc4)[C@H]1CC[C@H]2[C@@]12CO[C@@]3(O)[C@@H](O)[C@@H]1C(C)(C)CC[C@@H]2O`, the values for the EC50 in [1] and in assay [2] were 1.82 µM and 0.86 µM, respectively.

For the molecule `C=CCO[C@H]1CCC2=C(O1)[C@@]13CO[C@@]4(OC(C)(C)O[C@@H]5[C@H]6CC[C@@H]1[C@]54C(=O)C6=C)[C@@H](O)[C@@H]3C(C)(C)C2`, the EC50 in [5] turned out to be 4.3 µM; in [6] it was 7.1 µM; in assay [7] it was 4.9 µM; in assay [8] it was 4.3 µM.

On to `C=C1C(=O)[C@]23[C@H](O)[C@H]1CC[C@H]2[C@@]12CO[C@@]3(O)[C@@H](O)[C@@H]1C(C)(C)Cc1sc(NC(C)=O)nc12`, for which the results for the half-maximal effective concentration (EC50) in assay [9] and in assay [10] were 2 µM and 6.8 µM, respectively.

For the molecule `C=C1C(=O)[C@@]23[C@@H]4OC(C)(C)O[C@@]25OC[C@]2(C6=C(CC[C@@H](OCCCl)O6)CC(C)(C)[C@H]2[C@@H]5O)[C@@H]3CC[C@@H]14`, the EC50 in assay [5] amounted to 6.8 µM; in [6] it was 7.2 µM; in assay [7] it was 7.3 µM; in assay [8], 8.7 µM.

Consider `C=C1C(=O)[C@@]23C(=O)O[C@H]4CCC(C)(C)[C@H]5C(=O)OC[C@@]45[C@@H]2CC[C@@H]1[C@H]3OC(=O)c1ccc(C)cc1`, for which the EC50 in [1] was 0.52 µM; in assay [2] it was 1.58 µM; in assay [3], 1.54 µM; in [4] it was 1.78 µM.

`C=C1C(=O)[C@@]23[C@@H]4OC(C)(C)O[C@@]25OC[C@]2(C6=C(CC[C@@H](OCC(C)C)O6)CC(C)(C)[C@H]2[C@@H]5O)[C@@H]3CC[C@@H]14`: the EC50 in assay [5] amounted to 5.8 µM; in assay [6] it was 8.2 µM; in assay [7], 7 µM; in assay [8] it was 10.3 µM.

As for `C=C1C(=O)[C@@]23C(=O)O[C@H]4CCC(C)(C)[C@H]5C(=O)OC[C@@]45[C@@H]2CC[C@@H]1[C@H]3OC(=O)c1ccccc1Cl`, the EC50 is 0.26 µM in assay [1], 0.72 µM in assay [2], 0.82 µM in assay [3] and 0.28 µM in [4].

Turning to `C=C1C(=O)[C@@]23[C@@H]4OC(C)(C)O[C@@]25OC[C@]2(C6=C(CC[C@@H](OCCCC)O6)CC(C)(C)[C@H]2[C@@H]5O)[C@@H]3CC[C@@H]14`, the EC50 stood at 2.4 µM in assay [5], 3.7 µM in assay [6], 5.8 µM in assay [7] and 6.8 µM in assay [8].

In the case of `COc1cccc2c1C(=O)c1c(O)c3c(c(O)c1C2=O)C[C@@](O)(C(=O)CO)C[C@@H]3O[C@H]1C[C@H](N)[C@H](O)[C@H](C)O1` [DOXORUBICIN HYDROCHLORIDE], the EC50 in assay [5] was 0.7 µM; in [6] it was 2.3 µM; in assay [7] it was 0.7 µM; in [8], over 10 µM.
